{
  "source": "paper PMC9401487",
  "about": "(Clinical Cancer Research, 2021)",
  "system": "LoVo colorectal cancer cell line",
  "experiment": "LoVo growth inhibition, ceralasertib alone or with carboplatin",
  "assay_type": "cell-based, human",
  "data": [
    {"smiles": "C[C@@H]1COCCN1c1cc(C2([S@](C)(=N)=O)CC2)nc(-c2cc[nH]c3nccc2-3)n1", "note": "[ceralasertib]", "values": [
      {"measurement": "Combination cell killing with carboplatin", "setting": "0.1 μmol/L ceralasertib", "result": "not at 0.1 μmol/L"},
      {"measurement": "Combination cell killing with carboplatin", "setting": "0.3 μmol/L ceralasertib", "result": "combination cell killing with carboplatin was seen"},
      {"measurement": "Combination cell killing with carboplatin", "setting": "1 μmol/L ceralasertib", "result": "Greater cell killing"}
    ]}
  ]
}
